The term Kd denotes the constant that tells how readily two partners part at equilibrium. Broadly, the stoichiometry N is the number of molecules, sites or subunits per partner or assembly.

Here are results for 2 compounds from article PMC2885425, “Complete Phenotypic Recovery of an Alzheimer's Disease Model by a Quinone-Tryptophan Hybrid Aggregation Inhibitor” (PLoS ONE, 2010).

In assay [1] the target is T1, β-amyloid polypeptide (Aβ1–42) (Homo sapiens, UniProt P05067).
T1 construct: gene APP; Aβ1–42 (synthetic, early oligomeric assemblies); NMR with Aβ12–28
T1 sequence (P05067 672-713): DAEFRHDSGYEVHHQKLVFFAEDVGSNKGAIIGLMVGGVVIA
Nature of the assay: fluorescence anisotropy titration (Aβ[…] early assemblies); supported by 1H-NMR shift perturbation with Aβ[…] and ThT fibril inhibition (IC50 […]). It counts as binding. For orientation: In fluorescence polarisation assays a small probe gives low polarisation when free and higher when bound to something large.

The target of assay [2] is Arctic (Arc) (E22G) mutant form of Aβ1–42 (human). In words: immunoprecipitation with antibody 6E10 and western blot of SDS-stable oligomers; head extracts (PBS, protease inhibitor, 1% SDS) of 6 day old Aβarc1-42-expressing flies on regular food; samples boiled.

`O=C1C=C(N[C@@H](Cc2c[nH]c3ccccc23)C(=O)O)C(=O)c2ccccc21` [IL, 1,4-naphthoquinon-2-yl-L-tryptophan]: the Kd in assay [1] was roughly 90 nM.
As to “Arctic (Arc) (E22G) mutant form of Aβ1–42 (peptide)”, in assay [2], the stoichiometry N was determined as 4.
